Measurements published in paper PMC8213057, “Targeting ALK2: An Open Science Approach to Developing Therapeutics for the Treatment of Diffuse Intrinsic Pontine Glioma” (Journal of Medicinal Chemistry, 2020).

Experiments:
IKKa/CHUK = biological target: T1, IKKa/CHUK (Homo sapiens, UniProt O15111); conditions: 1 μM; Run 1, Run 2
T1 sequence (O15111 1-745): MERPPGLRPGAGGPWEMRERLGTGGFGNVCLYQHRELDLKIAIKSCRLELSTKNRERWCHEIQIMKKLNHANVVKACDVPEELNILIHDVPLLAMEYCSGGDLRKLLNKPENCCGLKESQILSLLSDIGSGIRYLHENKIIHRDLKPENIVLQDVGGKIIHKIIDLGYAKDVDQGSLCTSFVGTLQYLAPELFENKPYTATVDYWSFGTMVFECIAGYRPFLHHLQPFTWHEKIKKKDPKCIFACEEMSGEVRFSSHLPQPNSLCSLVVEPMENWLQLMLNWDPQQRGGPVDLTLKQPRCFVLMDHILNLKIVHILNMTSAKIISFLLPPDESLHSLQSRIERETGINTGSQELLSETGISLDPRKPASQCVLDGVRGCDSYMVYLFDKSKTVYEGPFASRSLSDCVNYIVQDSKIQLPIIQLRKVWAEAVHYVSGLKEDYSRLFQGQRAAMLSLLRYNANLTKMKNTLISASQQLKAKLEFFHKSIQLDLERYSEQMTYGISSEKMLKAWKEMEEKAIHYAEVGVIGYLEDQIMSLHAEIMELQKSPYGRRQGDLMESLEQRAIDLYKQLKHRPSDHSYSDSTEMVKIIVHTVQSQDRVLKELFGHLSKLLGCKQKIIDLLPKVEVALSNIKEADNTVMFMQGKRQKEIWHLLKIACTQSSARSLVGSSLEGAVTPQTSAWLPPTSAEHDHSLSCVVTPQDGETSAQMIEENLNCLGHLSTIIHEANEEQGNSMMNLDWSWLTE

JAK3 = biological target: T2, JAK3 (Homo sapiens, UniProt P52333); conditions: 1 μM; Run 1, Run 2
T2 sequence (P52333 1-1124): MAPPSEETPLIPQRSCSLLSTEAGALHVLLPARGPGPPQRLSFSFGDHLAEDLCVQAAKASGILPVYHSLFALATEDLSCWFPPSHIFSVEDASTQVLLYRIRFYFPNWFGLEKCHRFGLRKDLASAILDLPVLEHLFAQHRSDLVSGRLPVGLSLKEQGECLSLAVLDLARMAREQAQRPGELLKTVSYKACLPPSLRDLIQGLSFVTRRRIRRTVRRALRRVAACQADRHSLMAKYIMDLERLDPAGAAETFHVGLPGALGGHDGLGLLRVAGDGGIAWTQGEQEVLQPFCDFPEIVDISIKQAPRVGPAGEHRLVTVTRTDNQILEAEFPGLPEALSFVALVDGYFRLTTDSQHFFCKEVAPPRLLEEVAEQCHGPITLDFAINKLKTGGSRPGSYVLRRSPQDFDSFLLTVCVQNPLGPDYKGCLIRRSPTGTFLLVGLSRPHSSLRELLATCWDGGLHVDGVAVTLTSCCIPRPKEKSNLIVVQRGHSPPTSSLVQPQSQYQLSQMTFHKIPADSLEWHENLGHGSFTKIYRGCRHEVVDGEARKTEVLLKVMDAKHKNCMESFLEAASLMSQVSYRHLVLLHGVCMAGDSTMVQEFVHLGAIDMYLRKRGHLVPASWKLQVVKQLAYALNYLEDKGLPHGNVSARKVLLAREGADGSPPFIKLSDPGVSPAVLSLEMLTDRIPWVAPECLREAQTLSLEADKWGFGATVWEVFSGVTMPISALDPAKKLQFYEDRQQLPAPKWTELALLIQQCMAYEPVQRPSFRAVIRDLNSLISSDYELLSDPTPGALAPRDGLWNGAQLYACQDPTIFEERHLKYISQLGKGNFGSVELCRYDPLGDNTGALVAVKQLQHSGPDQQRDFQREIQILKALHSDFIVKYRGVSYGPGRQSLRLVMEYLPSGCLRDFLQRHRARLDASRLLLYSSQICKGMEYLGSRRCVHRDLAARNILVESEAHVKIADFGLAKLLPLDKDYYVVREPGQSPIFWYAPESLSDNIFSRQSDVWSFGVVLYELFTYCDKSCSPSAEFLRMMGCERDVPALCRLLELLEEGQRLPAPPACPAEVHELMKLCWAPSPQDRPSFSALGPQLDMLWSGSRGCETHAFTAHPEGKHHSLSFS

LCK2/ICK = biological target: T3, LCK2/ICK (Homo sapiens, UniProt Q9UPZ9); conditions: 1 μM; Run 1, Run 2
T3 sequence (Q9UPZ9 1-632): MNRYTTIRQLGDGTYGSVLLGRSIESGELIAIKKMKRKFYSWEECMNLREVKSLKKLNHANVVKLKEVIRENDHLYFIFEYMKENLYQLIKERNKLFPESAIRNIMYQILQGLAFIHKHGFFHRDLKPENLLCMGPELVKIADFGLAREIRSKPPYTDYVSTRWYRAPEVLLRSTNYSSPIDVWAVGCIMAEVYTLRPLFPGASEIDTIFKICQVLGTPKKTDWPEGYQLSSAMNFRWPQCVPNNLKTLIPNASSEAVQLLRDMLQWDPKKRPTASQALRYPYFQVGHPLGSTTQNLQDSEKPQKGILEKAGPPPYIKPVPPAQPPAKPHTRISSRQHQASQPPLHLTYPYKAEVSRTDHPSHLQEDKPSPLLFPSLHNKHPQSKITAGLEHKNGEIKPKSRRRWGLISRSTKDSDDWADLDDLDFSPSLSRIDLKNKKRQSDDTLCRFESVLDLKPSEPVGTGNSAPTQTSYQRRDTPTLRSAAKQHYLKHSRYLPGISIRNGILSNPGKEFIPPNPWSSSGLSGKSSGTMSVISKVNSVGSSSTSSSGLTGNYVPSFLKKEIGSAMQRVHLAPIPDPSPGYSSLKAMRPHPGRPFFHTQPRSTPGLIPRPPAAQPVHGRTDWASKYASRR

EGFR = EGFR (Homo sapiens, UniProt P00533); assay: biochemical; conditions: read-out: % enzyme activity, 1 μM; Run 1, Run 2
Chain of EGFR (P00533 25-1210): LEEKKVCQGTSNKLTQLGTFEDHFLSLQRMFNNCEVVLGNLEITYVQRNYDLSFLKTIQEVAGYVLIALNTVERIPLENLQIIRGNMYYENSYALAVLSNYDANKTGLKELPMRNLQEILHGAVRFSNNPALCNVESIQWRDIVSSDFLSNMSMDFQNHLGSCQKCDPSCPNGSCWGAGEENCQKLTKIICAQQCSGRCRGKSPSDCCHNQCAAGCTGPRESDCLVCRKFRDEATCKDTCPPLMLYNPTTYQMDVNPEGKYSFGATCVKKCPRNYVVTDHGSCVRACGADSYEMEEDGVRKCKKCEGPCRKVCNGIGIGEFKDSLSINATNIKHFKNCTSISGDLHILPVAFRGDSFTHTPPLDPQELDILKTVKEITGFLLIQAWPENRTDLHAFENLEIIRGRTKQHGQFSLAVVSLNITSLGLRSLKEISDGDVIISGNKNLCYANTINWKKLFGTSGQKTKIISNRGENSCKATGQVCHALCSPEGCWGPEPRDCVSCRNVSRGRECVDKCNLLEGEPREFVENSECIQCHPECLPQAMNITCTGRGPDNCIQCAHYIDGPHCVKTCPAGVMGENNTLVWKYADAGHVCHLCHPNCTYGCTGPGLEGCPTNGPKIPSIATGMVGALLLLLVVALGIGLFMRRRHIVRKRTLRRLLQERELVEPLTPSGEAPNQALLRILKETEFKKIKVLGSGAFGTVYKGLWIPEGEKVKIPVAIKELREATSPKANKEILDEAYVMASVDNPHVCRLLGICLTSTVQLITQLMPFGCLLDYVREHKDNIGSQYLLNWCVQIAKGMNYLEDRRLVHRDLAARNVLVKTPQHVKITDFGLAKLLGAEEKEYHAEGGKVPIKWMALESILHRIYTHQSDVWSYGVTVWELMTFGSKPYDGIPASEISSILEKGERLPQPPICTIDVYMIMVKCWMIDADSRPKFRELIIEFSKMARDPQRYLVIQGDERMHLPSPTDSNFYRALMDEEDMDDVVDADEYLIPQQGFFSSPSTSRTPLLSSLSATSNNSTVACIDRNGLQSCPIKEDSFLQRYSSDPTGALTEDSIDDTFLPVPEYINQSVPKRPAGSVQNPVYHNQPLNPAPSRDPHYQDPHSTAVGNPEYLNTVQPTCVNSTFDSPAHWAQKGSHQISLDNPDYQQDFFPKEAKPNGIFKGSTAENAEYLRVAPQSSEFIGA

SYK = SYK (Homo sapiens, UniProt P43405); assay: biochemical; conditions: read-out: % enzyme activity, 1 μM; Run 1, Run 2
TRKA = TRKA (Homo sapiens, UniProt P04629); assay: biochemical; conditions: read-out: % enzyme activity, 1 μM; Run 1, Run 2
Chain of TRKA (P04629 33-796): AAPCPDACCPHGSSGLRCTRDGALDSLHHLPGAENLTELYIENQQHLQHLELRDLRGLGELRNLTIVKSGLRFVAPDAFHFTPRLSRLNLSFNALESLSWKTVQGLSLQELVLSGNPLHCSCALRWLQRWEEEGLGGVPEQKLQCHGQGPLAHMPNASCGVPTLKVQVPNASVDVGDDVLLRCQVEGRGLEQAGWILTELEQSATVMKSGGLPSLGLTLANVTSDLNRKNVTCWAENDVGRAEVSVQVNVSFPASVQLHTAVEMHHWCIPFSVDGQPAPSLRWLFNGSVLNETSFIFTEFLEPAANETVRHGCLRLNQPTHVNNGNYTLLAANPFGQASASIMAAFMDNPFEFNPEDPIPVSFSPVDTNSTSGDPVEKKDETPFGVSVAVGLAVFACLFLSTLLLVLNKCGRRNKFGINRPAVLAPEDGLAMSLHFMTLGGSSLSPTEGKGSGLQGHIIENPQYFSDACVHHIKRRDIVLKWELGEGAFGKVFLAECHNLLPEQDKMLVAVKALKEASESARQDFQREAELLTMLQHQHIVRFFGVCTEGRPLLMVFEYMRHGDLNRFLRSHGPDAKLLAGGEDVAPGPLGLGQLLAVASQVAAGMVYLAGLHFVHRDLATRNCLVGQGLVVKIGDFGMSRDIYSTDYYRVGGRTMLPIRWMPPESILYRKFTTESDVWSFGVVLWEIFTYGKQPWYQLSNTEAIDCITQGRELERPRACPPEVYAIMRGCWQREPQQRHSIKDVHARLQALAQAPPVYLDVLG

SMILES | % enzyme activity (IKKa/CHUK) [%] | % enzyme activity (JAK3) [%] | % enzyme activity (LCK2/ICK) [%] | remaining activity at 1 µM (EGFR) [%] | remaining activity at 1 µM (SYK) [%] | remaining activity at 1 µM (TRKA) [%]
COc1cc(-c2cncc(-c3ccc(N4C[C@@H](C)N(C)[C@@H](C)C4)cc3)c2C)cc(F)c1C(N)=O [Compound 26c, 2-Fluoro-6-methoxy-4-(4-methyl-5-(4-((3R,5S)-3,4,5-trimethylpiperazin-1-yl)phenyl)pyridin-3-yl)benzamide] | 85.96 | 99.31 | 95.60 | 95.3 | 102 | 95.2
COc1cc(-c2cncc(-c3ccc(N4CCN(C)CC4)cc3)c2C)cc(F)c1C(N)=O [Compound 26a, 2-Fluoro-6-methoxy-4-(4-methyl-5-(4-(4-methylpiperazin-1-yl)phenyl)pyridin-3-yl)benzamide] | 82.74 | 102.92 | 104.57 | 96 | 101 | 91.8
